Data taken from patent US20250206724A1, “SUBSTITUTED 3-AMINO INDAZOLE DERIVATIVES AS KINASE INHIBITORS” (NERVIANO MEDICAL SCIENCES S.R.L., priority 2022, published 2025).
pIC50: −log10 of the molar value. Counter-ions that a name gives are not always drawn.

Assays:
[1] = test system: EoL-1-cell; test: Cytotoxicity assay (CellTiterGlo, 72 hours treatment), EoL-1; type: cell-based, Human; settings: Homo sapiens, EOL1, 72 h, EoL-1 acute myeloid leukemia cells, ATP determination, read-out: Cell line IC50 EoL-1-cell
Protocol: (§1) Cell Lines and Cell Cultures
(§2) All cell lines were seeded at a density ranging from 2,400 to 8,000 cells/well in 384-well cell culture microplates and incubated at […] in a humidified 5% […] atmosphere 24 hours before treatment. Compound solutions were directly administered to the cells using the D300e digital dispenser (Tecan) to obtain scalar final concentrations ranging from 5 nM to 10 μM (duplicate wells for each point), with 80 uL final volume per well. The final DMSO concentration in test wells was adjusted to 0.1% (v/v); control wells were mock-treated and contained the same final concentration of DMSO.
(§3) Cell viability was determined after 72 hours treatment by ATP determination in each test well with a luciferase-based detection system (CellTiterGlo, Promega, Madison, WI, USA), following manufacturer's instructions. The intensity of emitted light was measured using an EnVision reader (PerkinElmer, Waltham, MA USA) and expressed as RLU. One to three independent experiments were performed for each cell line, as indicated.
(§4) Analysis of Antiproliferative Data
(§5) Cell growth inhibitory activity was evaluated comparing treated versus control data using the Assay Explorer software suite (Symix Technologies Inc.). IC50s values were calculated by sigmoidal fitting interpolation using the following quadriparametric Hill equation: […]
(§6) The Top, Bottom and Hill slope parameters were left free to assume any value, but only curves whose Hill slope had values between 0.5 and 4 were arbitrarily considered acceptable and used to calculate the average IC50s. Curves too steep (HillSlope≥4) or too slight (HillSlope≤0.5) were not included (Table C).

[2] = test system: MOLM-13; test: Cytotoxicity assay (CellTiterGlo, 72 hours treatment), MOLM-13; type: cell-based, Human; settings: Homo sapiens, MOLM-13, 72 h, MOLM-13 acute myeloid leukemia cells, ATP determination, read-out: Cell line IC50 MOLM-13
Protocol: as §1, §2, §3, §4, §5, §6

[3] = test system: NB-4; test: Cytotoxicity assay (CellTiterGlo, 72 hours treatment), NB-4; type: cell-based, Human; settings: Homo sapiens, NB-4, 72 h, NB-4 acute myeloid leukemia cells, ATP determination, read-out: Cell line IC50 NB-4
Protocol: as §1, §2, §3, §4, §5, §6

[4] = molecular target: T1, CDK11A (Homo sapiens, UniProt Q9UQ88); settings: displacement of SNS-032-Atto590 probe (0.002 μM) from CDK11A-p58 (0.032 uM), fluorescence polarization;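 also: compound preincubated 30 min with CDK11A-p58, then probe added and polarization (mP) read 15 min later, 0% displacement is probe plus enzyme, 100% is probe alone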
T1 sequence (Q9UQ88 346-783): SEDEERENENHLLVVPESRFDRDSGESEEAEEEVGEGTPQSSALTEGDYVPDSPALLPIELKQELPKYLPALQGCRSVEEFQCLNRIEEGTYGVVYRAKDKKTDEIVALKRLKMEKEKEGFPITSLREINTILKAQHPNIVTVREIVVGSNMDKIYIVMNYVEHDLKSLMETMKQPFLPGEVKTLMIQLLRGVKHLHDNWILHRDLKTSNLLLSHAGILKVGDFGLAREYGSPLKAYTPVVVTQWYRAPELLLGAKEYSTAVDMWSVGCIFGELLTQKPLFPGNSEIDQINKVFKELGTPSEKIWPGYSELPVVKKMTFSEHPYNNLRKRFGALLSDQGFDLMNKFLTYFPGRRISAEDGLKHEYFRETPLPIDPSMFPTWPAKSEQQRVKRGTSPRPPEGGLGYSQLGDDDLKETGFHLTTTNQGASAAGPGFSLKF

DC50 [4]: 19 nM
Compound: CC(=O)c1ccc(Cl)c(-c2ccc3[nH]nc(NC(=O)[C@@H]4CCCNC4)c3c2)c1 [cpd 33, (3R)-N-[5-(5-Acetyl-2-chlorophenyl)-1H-indazol-3-yl]piperidine-3-carboxamide hydrochloride]
pIC50 [1]: 5.86
pIC50 [2]: 5.87
pIC50 [3]: 5.81
